Values quoted from earlier work in patent US20170325481A1, “METHOD OF FORMING ENCAPSULATED COMPOSITIONS WITH ENHANCED SOLUBILITY AND STABILITY” (KEMIN INDUSTRIES, INC., priority 2011, published 2017).

Conditions: multiple nanosize emulsions, 4 weeks of storage at 50° C.

β-carotene left after storage: 32.3%
SMILES: CC1=C(/C=C/C(C)=C/C=C/C(C)=C/C=C/C=C(C)/C=C/C=C(C)/C=C/C2=C(C)CCCC2(C)C)C(C)(C)CCC1 [β-carotene]
